Measured values as given in patent US20260027073A1, “USE OF SMALL-MOLECULE COMPOUND HAVING NAPHTHYLAMINE STRUCTURE” (HANGZHOU PHECDAMED CO., LTD., priority 2023, published 2026).

How the values were obtained:
[1] = system: LPS-induced acute lung injury mice; experiment: Survival in LPS-induced acute lung injury; assay type: in vivo, C57 mice; conditions: 20 mg/kg intraperitoneal once a day; up to 9 days; FIG. 28
Method: The model was constructed as follows, male mice C57 aged 6-8 weeks and weighing 18-22 g were anesthetized and fixed, and then 20 mg/kg LPS (E.coil) was dissolved in 50 μl of PBS and dripped under direct laryngoscopic vision to form a model group. The experiment was divided into three groups, each having six mice, LPS group (model control group, airway drip of 50 μl LPS), LPS+20 mg/kg group (airway drip of 50 μl LPS, and given 20 mg/kg of TJ01-013 treatment), LPS+Sivelestat group (positive control group, airway drip of 50 μl LPS and given 5 mg/kg of Sivelestat treatment). The mode of administration was intraperitoneal injection, the volume of administration was 5 ml/kg, the frequency of administration was once a day, and the biological deaths and changes in body weights of the mice were observed and recorded every day, and the mice were regarded as physiologically dead if their body weights decreased by 20% or more compared with that before the administration of LPS. Survival curves were plotted based on deaths observed up to 9 days after administration.

APP/PS1 mice = experiment: Cognitive dysfunction in APP/PS1 mice; assay type: in vivo
Method: Male transgenic APP/PS1 mice were purchased from the Model Animal Research Center of Nanjing University, and after being raised to 12 weeks old, the APP/PS1 mice were divided into three groups: normal C57 group (WT), model control group (APP/PS1+Vehicle), and TJ01-013 treatment group (APP/PST+TJ01-013). The mode of administration was by oral gavage, normal group and model control group were administered vehicle by oral gavage, the concentration of TJ01-013 was 30 mg/kg, the gavage volume was 5 ml/kg, the frequency of administration was once a day, and the administration period was 3 months. • (2) Water maze experiment
The water maze device is a circular pool (140 cm in diameter) filled with dissolved titanium dioxide water, keeping the water temperature at 22° C. A platform with a diameter of 12 cm was placed at a fixed position 1 cm below the water surface, and the mice were trained in four quadrants every day for five consecutive days. Each quadrant lasted 60 seconds or until the mice found the platform. […] All parameters were recorded by a video tracking system.
Mouse heart perfusion for brain extraction: APP/PS1 mice and control C57BL/6J mice were anesthetized, and after they became unconscious, the limbs were fixed on a dissection table in a fuming hood, and the abdominal skin was cut with scissors after alcohol disinfection to expose the liver. The diaphragm was quickly cut, and the heart was exposed by turning upward after clamping the xiphoid with hemostatic forceps. Prepared PBS was injected into the left ventricle, noting that the direction was toward the aorta. The peristaltic pump was turned on after opening the right auricle and the blood was drained at a low rate at first. When the heart stopped beating or the fluid pumped at the right auricle was clarified and colorless, the mouse liver can be seen to turn grayish white. The fur was cut open along the midline of the mouse hindbrain with scissors, and the skull was exposed, then forceps were inserted from the criss-cross of the mouse's brain shell, and scissors were used to assist in peeling off the skull, and then the intact whole brain was removed. The fresh mouse whole brain was halved and placed in a 5 mL centrifuge tube, and 4 mL of 4% paraformaldehyde fixative was added to fix for 24 h, sections were made for antigenic repair, incubated for 30 min with dropwise adding of BSA at a concentration of 3-5%, and stained overnight with polyclonal rabbit anti-GFAP antibody (1:100) and mouse anti-β-amyloid protein 1-16 antibody (1:100), and after the sections were washed in PBS three times, the corresponding fluorescent secondary antibody was added dropwise to cover the tissue, and the sections were incubated in dark for 1 h, the slides were washed and stained with DAPI staining solution added dropwisely for 10 min, and the sections were sealed with resin sealer, and finally imaged with Cytation3.
Mouse brain tissue homogenates were prepared according to the brain tissue homogenization method described in the Life Technologies ELISA Technical Guide. […]

O=C(O)C[S+]([O-])c1cc(NS(=O)(=O)c2ccc(Br)cc2)c2ccccc2c1O (stereo not drawn) [I-1]
survival rate [1]: significantly elevated
time to find the platform (water maze) (APP/PS1 mice; 30 mg/kg oral gavage, 3 months, FIG. 42): significantly reduced
astrocyte activation in the hippocampal region (GFAP) (APP/PS1 mice; FIG. 44): significantly reduced
number and size of Aβ plaques (APP/PS1 mice; FIG. 44): significant decrease
amount of Aβ in the brain tissues (Elisa) (APP/PS1 mice; FIG. 45): significantly decreased
number of crossing over the platform (water maze) (APP/PS1 mice; vs APP/PS1 Vehicle group, FIG. 43): significantly larger
